Patent publication US20130196986A1 (priority 2010, published 2013)

biological target: T1, P2X7 receptor (Homo sapiens, UniProt Q99572); assay: Ca++ flux assay (FLIPR) in P2X7-HEK-293 cell line stably expressing the full length P2X7 receptor, Bz-ATP activation; assay type: cell-based; conditions: P2X7-HEK-293 cells; agonist Bz-ATP; fluorescence as total area over 90 seconds; read-out: P2X7 Ca Flux hu IC50
T1 construct: stably expressing the full length P2X7 receptor; expressed in transfected cells
T1 sequence (Q99572 1-595): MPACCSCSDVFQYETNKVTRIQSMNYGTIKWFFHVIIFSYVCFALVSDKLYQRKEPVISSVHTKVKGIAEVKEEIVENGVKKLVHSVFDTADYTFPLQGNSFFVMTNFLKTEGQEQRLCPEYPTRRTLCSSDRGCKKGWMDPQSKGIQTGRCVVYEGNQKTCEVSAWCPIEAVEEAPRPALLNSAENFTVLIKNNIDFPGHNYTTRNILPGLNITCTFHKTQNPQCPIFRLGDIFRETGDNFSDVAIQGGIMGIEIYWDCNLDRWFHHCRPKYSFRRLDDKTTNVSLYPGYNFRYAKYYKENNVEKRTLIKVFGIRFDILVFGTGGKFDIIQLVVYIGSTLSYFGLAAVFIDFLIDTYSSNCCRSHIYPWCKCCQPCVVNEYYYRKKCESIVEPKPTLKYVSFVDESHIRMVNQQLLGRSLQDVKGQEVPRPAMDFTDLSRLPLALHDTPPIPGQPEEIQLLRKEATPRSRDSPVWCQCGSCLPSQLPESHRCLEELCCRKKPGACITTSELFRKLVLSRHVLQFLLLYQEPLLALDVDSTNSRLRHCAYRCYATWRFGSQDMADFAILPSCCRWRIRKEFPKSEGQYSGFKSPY
Outline: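 HEK-293 cells stably expressing full-length P2X7 were loaded with Ca++-sensitive dye for 1 h, with compound added during loading. Cells were stimulated with Bz-ATP on FLIPR. Fluorescence was integrated as total area over 90 s, and IC50 was taken as 50% inhibition of the maximal Ca++ response.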

Row | SMILES | IC50 [nM]
1 | COc1cccc(-c2ccccc2CS(=O)(=O)c2nnc3c(=O)n(-c4cccc(C(F)(F)F)c4C)ccn23)c1 [Compound 146, 3-((3′-methoxybiphenyl-2-yl)methylsulfonyl)-7-(2-methyl-3-(trifluoromethyl)phenyl)-[1,2,4]triazolo[4,3-a]pyrazin-8(7H)-one] | 47
2 | O=c1c2nnc(SCc3cc(Cl)cc(Cl)c3)n2ccn1-c1cccc(Cl)c1Cl [Compound 67, 3-(3,5-dichlorobenzylthio)-7-(2,3-dichlorophenyl)-[1,2,4]triazolo[4,3-a]pyrazin-8(7H)-one] | 168
3 | Cc1c(Cl)cccc1-n1ccn2c([S+]([O-])Cc3cc(Cl)cc(Cl)c3)nnc2c1=O (stereo not drawn) [Compound 162, 7-(3-chloro-2-methylphenyl)-3-(3,5-dichlorobenzylsulfinyl)-[1,2,4]triazolo[4,3-a]pyrazin-8(7H)-one] | 335
4 | [2H]c1c([2H])c([2H])c(C([2H])([2H])Sc2nnc3c(=O)n(-c4cccc(Cl)c4C)ccn23)c([2H])c1[2H] [Compound 34] | 148
5 | Cc1c(-n2ccn3c(S(=O)(=O)Cc4ccccc4Oc4ccccc4)nnc3c2=O)cccc1C(F)(F)F [Compound 153, 7-(2-methyl-3-(trifluoromethyl)phenyl)-3-(2-phenoxybenzylsulfonyl)-[1,2,4]triazolo[4,3-a]pyrazin-8(7H)-one] | 51.5
6 | Cc1c(Cl)cccc1-n1ccn2c(SCc3ccccc3-c3cccs3)nnc2c1=O [Compound 40, 7-(3-chloro-2-methylphenyl)-3-(2-(thiophen-2-yl)benzylthio)-[1,2,4]triazolo[4,3-a]pyrazin-8(7H)-one] | 45.8
7 | Cc1c(-n2ccn3c(S(=O)(=O)Cc4cscc4Br)nnc3c2=O)cccc1C(F)(F)F [Compound 147, 3-((4-bromothiophen-3-yl)methylsulfonyl)-7-(2-methyl-3-(trifluoromethyl)phenyl)-[1,2,4]triazolo[4,3-a]pyrazin-8(7H)-one] | 45.8
8 | Cc1c(Cl)cccc1-n1ccn2c(SCc3ccccc3I)nnc2c1=O [Compound 74, 7-(3-chloro-2-methylphenyl)-3-(2-iodobenzylthio)-[1,2,4]triazolo[4,3-a]pyrazin-8(7H)-one] | 264
9 | Cc1c(-n2ccn3c(S(=O)(=O)Cc4ccccc4Cl)nnc3c2=O)cccc1C(F)(F)F [Compound 121, 3-(2-chlorobenzylsulfonyl)-7-(2-methyl-3-(trifluoromethyl)phenyl)-[1,2,4]triazolo[4,3-a]pyrazin-8(7H)-one] | 11.9
10 | Cc1c(Cl)cccc1-n1ccn2c(SCc3cc(Cl)ccc3F)nnc2c1=O [Compound 64, 3-(5-chloro-2-fluorobenzylthio)-7-(3-chloro-2-methylphenyl)-[1,2,4]triazolo[4,3-a]pyrazin-8(7H)-one] | 755
11 | Cc1c(-n2ccn3c(S(=O)(=O)CC(=O)c4ccccc4)nnc3c2=O)cccc1C(F)(F)F [Compound 163, 7-(2-methyl-3-(trifluoromethyl)phenyl)-3-(2-oxo-2-phenylethylsulfonyl)-[1,2,4]triazolo[4,3-a]pyrazin-8(7H)-one] | 3110
12 | Cc1c(-n2ccn3c(S(=O)(=O)Cc4cccc(F)c4Cl)nnc3c2=O)cccc1C(F)(F)F [Compound 124, 3-(2-chloro-3-fluorobenzylsulfonyl)-7-(2-methyl-3-(trifluoromethyl)phenyl)-[1,2,4]triazolo[4,3-a]pyrazin-8(7H)-one] | 14.6
13 | Cc1onc(-c2ccccc2)c1CSc1nnc2c(=O)n(-c3cccc(C(F)(F)F)c3C)ccn12 [Compound 17, 7-(2-methyl-3-(trifluoromethyl)phenyl)-3-((5-methyl-3-phenylisoxazo1-4-yl)methylthio)-[1,2,4]triazolo[4,3-a]pyrazin-8(7H)-one] | 543
14 | Cc1c(Cl)cccc1-n1ccn2c(SCc3ccccc3[N+](=O)[O-])nnc2c1=O [Compound 53, 7-(3-chloro-2-methylphenyl)-3-(2-nitrobenzylthio)-[1,2,4]triazolo[4,3-a]pyrazin-8(7H)-one] | 994
15 | Cc1c(Cl)cccc1-n1ccn2c(SCc3cc(Cl)cc(C(F)(F)F)c3)nnc2c1=O [Compound 78, 7-(3-chloro-2-methylphenyl)-3-(3-chloro-5-(trifluoromethyl)benzylthio)-[1,2,4]triazolo[4,3-a]pyrazin-8(7H)-one] | 597
16 | Cc1cccc(-c2ccccc2CS(=O)(=O)c2nnc3c(=O)n(-c4cccc(C(F)(F)F)c4C)ccn23)c1 [Compound 152] | 51
17 | O=c1c2nnc(SCc3ccccc3)n2ccn1-c1ccc(Cl)c(Cl)c1 [Compound 100, 3-(benzylthio)-7-(3,4-dichlorophenyl)-[1,2,4]triazolo[4,3-a]pyrazin-8(7H)-one] | 3920

Row | SMILES | IC50 [nM]
18 | Cc1c(Cl)cccc1-n1ccn2c(SCc3ccc(C(C)C)cc3)nnc2c1=O [Compound 104, 7-(3-chloro-2-methylphenyl)-3-(4-isopropylbenzylthio)-[1,2,4]triazolo[4,3-a]pyrazin-8(7H)-one] | 2740
19 | Cc1c(-n2ccn3c(SCc4ccccc4Br)nnc3c2=O)cccc1C(F)(F)F [Compound 12, 3-(2-bromobenzylthio)-7-(2-methyl-3-(trifluoromethyl)phenyl)-[1,2,4]triazolo[4,3-a]pyrazin-8(7H)-one] | 107
20 | Cc1c(-n2ccn3c(SCc4ccccc4OC(F)(F)F)nnc3c2=O)cccc1C(F)(F)F [Compound 51, 7-(2-methyl-3-(trifluorornethyl)phenyl)-3-(2-(trifluoromethoxy)benzylthio)-[1,2,4]triazolo[4,3-a]pyrazin-8(7H)-one] | 44.2
21 | O=c1c2nnc(SCc3cc(Cl)cc(Cl)c3)n2ccn1-c1cccc(C(F)(F)F)c1Cl [Compound 60, 7-(2-chloro-3-(trifluorornethyl)phenyl)-3-(3,5-dichlorobenzylthio)-[1,2,4]triazolo[4,3-a]pyrazin-8(7H)-one] | 91.4
22 | Cc1c(Br)cccc1-n1ccn2c(SCc3ccccc3)nnc2c1=O [Compound 99, 3-(benzylthio)-7-(3-bromo-2-methylphenyl)-[1,2,4]-triazolo[4,3-a]pyrazin-8(7H)-one] | 250
23 | COc1ccc(CSc2nnc3c(=O)n(-c4cccc(Cl)c4C)ccn23)cc1 [Compound 113, 7-(3-chloro-2-methylphenyl)-3-(4-methoxybenzylthio)-[1,2,4]triazolo[4,3-a]pyrazin-8(7H)-one] | 5650
24 | COc1ccccc1CSc1nnc2c(=O)n(-c3cccc(Cl)c3C)ccn12 [Compound 110, 7-(3-chloro-2-methylphenyl)-3-(2-methoxybenzylthio)-[1,2,4]triazolo[4,3-a]pyrazin-8(7H)-one] | 544
25 | Cc1c(Cl)cccc1-n1ccn2c(SCc3ccccc3C(F)(F)F)nnc2c1=O [Compound 111, 7-(3-chloro-2-methylphenyl)-3-(2-(trifluoromethyl)benzylthio)-[1,2,4]triazolo[4,3-a]pyrazin-8(7H)-one] | 515
26 | Cc1c(Cl)cccc1-n1ccn2c(SCc3cccc(C(F)(F)F)c3)nnc2c1=O [Compound 89, 7-(3-chloro-2-methylphenyl)-3-(3-(trifluoromethyl)benzylthio)-[1,2,4]triazolo[4,3-a]pyrazin-8(7H)-one] | 581
27 | COc1c(Cl)cccc1-n1ccn2c(SCc3ccccc3)nnc2c1=O [Compound 80, 3-(benzylthio)-7-(3-chloro-2-methoxyphenyl)-[1,2,4]triazolo[4,3-a]pyrazin-8(7H)-one] | 533
28 | Cc1cccc(-c2ccccc2CSc2nnc3c(=O)n(-c4cccc(C(F)(F)F)c4C)ccn23)c1 [Compound 5, 7-(2-methyl-3-(trifluorornethyl)phenyl)-3-((3'-methylbiphenyl-2-yl)methylthio)-[1,2,4]triazolo[4,3-a]pyrazin-8(7H)-one] | 30.4
29 | O=c1c2nnc(SCc3ccccc3)n2ccn1-c1cccc(C(F)(F)F)c1F [Compound 59, 3-(benzylthio)-7-(2-fluoro-3-(trifluoromethyl)phenyl)-[1,2,4]triazolo[4,3-a]pyrazin-8(7H)-one] | 457
30 | Cc1c(-n2ccn3c(S(=O)(=O)Cc4ccccc4Br)nnc3c2=O)cccc1C(F)(F)F [Compound 131, 3-(2-bromobenzylsulfonyl)-7-(2-methyl-3-(trifluoromethyl)phenyl)-[1,2,4]triazolo[4,3-a]pyrazin-8(7H)-one] | 17.7
31 | Cc1c(Cl)cccc1-n1ccn2c(SCc3cccc(I)c3)nnc2c1=O [Compound 77, 7-(3-chloro-2-methylphenyl)-3-(3-iodobenzylthio)-[1,2,4]triazolo[4,3-a]pyrazin-8(7H)-one] | 462
32 | Cc1c(Cl)cccc1-n1ccn2c(S(=O)(=O)Cc3cccc(F)c3Cl)nnc2c1=O [Compound 130, 7-(3-chloro-2-methylphenyl)-3-(2-chloro-3-fluorobenzylsulfonyl)-[1,2,4]triazolo[4,3-a]pyrazin-8(7H)-one] | 17.3
33 | Cc1c(Cl)cccc1-n1ccn2c(SCc3cc(F)c(F)c(F)c3)nnc2c1=O [Compound 102, 7-(3-chloro-2-methylphenyl)-3-(3,4,5-trifluorobenzylthio)-[1,2,4]triazolo[4,3-a]pyrazin-8(7H)-one] | 925
